Experimental data reported in patent publication US20150005277A1, “Protein Kinase Inhibitors and Uses Thereof” (Beigene, Ltd., priority 2013, published 2015).

Columns and labels:
[1] = molecular target: T1, phosphorylated Btk at Tyr223 in Ramos cells (Homo sapiens, UniProt Q06187); experiment: Btk pY223 Cellular Assay (HTRF, Ramos cells); format: cell-based; conditions: 1 hour compound incubation, stimulated with pervanadate or Na3VO4, read-out: 1050 (nM) Btk pY223
T1 construct: determine the endogenous levels of phosphorylated Btk at Tyr223; endogenous in cells; host or cells: Ramos cells (CRL-1596, ATCC)
Method: Btk pY223 cellular assay is a HTRF based assay intended to determine the endogenous levels of phosphorylated Btk at Tyr223. Phosphorylated Tyr223 is necessary for full activation of Btk.
Briefly, Ramos cells were serum starved in 0.5% FBS-containing RPMI1640 for 2 hours. Following starvation, the cells were incubated with compounds to be detected at various concentrations in a CO2 incubator for 1 hour. After incubation, cells were stimulated with 1 mM pervanadate (PV) or Na3VO4 (OV) for 20 min. Then, the cells were spinned down and lysed with 1× lysis buffer at RT for 10 min (4× lysis buffer supplied in the kit). During the incubation, 1× antibody mix was prepared by diluting anti-Btk-d2 and anti-pBtk-K in detection buffer (supplied in the kit). […] After that, 18 ul of cell lysate was transferred to the assay plate pre-loaded with antibody solution. After mixing gently and spinning briefly, the plate was sealed up and kept in dark at RT for 18 hours. The fluorescence emission was measured at two different wavelengths (665 nm and 620 nm) on a compatible HTRF reader (PHERAstar FS, BMG).

Recombinant Btk = Recombinant Btk (Homo sapiens, UniProt Q06187); experiment: Btk Kinase Assay (TR-FRET)
Recombinant Btk, sequence (Q06187 whole entry): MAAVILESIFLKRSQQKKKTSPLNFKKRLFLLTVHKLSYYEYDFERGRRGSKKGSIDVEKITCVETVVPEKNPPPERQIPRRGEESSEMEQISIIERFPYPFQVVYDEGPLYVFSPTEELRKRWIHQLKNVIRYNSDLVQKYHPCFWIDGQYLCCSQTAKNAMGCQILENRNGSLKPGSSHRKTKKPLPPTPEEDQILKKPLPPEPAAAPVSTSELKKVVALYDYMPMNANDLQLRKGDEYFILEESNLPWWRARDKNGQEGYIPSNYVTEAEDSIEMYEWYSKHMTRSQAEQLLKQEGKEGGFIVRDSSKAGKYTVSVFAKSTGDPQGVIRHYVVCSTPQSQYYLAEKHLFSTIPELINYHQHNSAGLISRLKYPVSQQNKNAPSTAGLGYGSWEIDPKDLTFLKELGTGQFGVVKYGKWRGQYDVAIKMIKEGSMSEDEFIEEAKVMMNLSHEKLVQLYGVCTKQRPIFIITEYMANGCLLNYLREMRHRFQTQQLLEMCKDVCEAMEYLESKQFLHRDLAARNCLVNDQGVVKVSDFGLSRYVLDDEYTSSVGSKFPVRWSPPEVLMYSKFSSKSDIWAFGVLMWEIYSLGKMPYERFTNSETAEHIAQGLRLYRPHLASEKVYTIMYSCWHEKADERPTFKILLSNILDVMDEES

T1 sequence (Q06187 whole entry): as above

SMILES | IC50 [1] [nM] | IC50 (Recombinant Btk) [nM]
C=CC(=O)N1CCC[C@@H](n2nc(-c3ccc(C)c(OC)c3)c(C(N)=O)c2N)C1 [Compound I-15, (R)-1-(1-Acryloylpiperidin-3-yl)-5-amino-3-(3-methoxy-4-methylphenyl)-1H-pyrazole-4-carboxamide] | 0.3 | 0.24
CN1CC=C(C(=O)N2CCCC(n3nc(-c4ccc(Oc5ccccc5)cc4)c(C(N)=O)c3N)C2)CC1 (stereo not shown) [Compound I-7, 5-Amino-1-(1-(1-methyl-1,2,3,6-tetrahydropyridine-4-carbonyl)piperidin-3-yl)-3-(4-phenoxyphenyl)-1H-pyrazole-4-carboxamide] |  | 14
N#C/C=C/CN1CCCC(n2nc(-c3ccc(Oc4ccccc4)cc3)c(C(N)=O)c2N)C1 (stereo not shown) [Compound I-11, (E)-5-Amino-1-(1-(3-cyanoallyl)piperidin-3-yl)-3-(4-phenoxyphenyl)-1H-pyrazole-4-carboxamide] |  | 7.6
C=CC(=O)N1CCC[C@@H](n2nc(-c3ccc(Cl)cc3)c(C(N)=O)c2N)C1 [Compound I-14, (R)-1-(1-Acryloylpiperidin-3-yl)-5-amino-3-(4-chlorophenyl)-1H-pyrazole-4-carboxamide] | 3.3 | 0.54
C=CC(=O)N1CCC[C@@H](n2nc(-c3ccc(OC)cc3)c(C(N)=O)c2N)C1 [Compound I-16, (R)-1-(1-Acryloylpiperidin-3-yl)-5-amino-3-(4-methoxyphenyl)-1H-pyrazole-4-carboxamide] | 17.7 | 1.4
C#CC(=O)N1CCCC(n2nc(-c3ccc(Oc4ccccc4)cc3)c(C(N)=O)c2N)C1 (stereo not shown) [Compound I-13, 5-Amino-3-(4-phenoxyphenyl)-1-(1-propioloylpiperidin-3-yl)-1H-pyrazole-4-carboxamide] | 7.5 | 0.21
NC(=O)c1c(-c2ccc(Oc3ccccc3)cc2)nn(C2CCCN(C(=O)CCl)C2)c1N (stereo not shown) [Compound I-6, 5-Amino-1-(1-(2-chloroacetyl)piperidin-3-yl)-3-(4-phenoxyphenyl)-1H-pyrazole-4-carboxamide] | 10.4 | 0.22
C=CC(=O)N1Cc2c(N)c(C(N)=O)n(-c3ccc(Oc4ccc(C(C)(C)C)cc4)cc3)c2C1 [II-6, 5-Acryloyl-3-amino-1-(4-(4-(tert-butyl)phenoxy)phenyl)-1,4,5,6-tetrahydropyrrolo[3,4-b]pyrrole-2-carboxamide] |  | 34
C=CC(=O)N1CCC(N2CCc3c(c(N)c(C(N)=O)n3-c3ccc(Oc4ccccc4)cc3)C2)C1 (stereo not shown) [II-2, 5-(1-Acryloylpyrrolidin-3-yl)-3-amino-1-(4-phenoxyphenyl)-4,5,6,7-tetrahydro-1H-pyrrolo[3,2-c]pyridine-2-carboxamide] |  | 3200
C=CC(=O)Nc1ccc2c(c1)c(N)c(C(N)=O)n2-c1ccc(Oc2ccccc2)cc1 [II-7, 5-Acrylamido-3-amino-1-(4-phenoxyphenyl)-1H-indole-2-carboxamide] | 55.6 | 9.4
C=CC(=O)N1CCC[C@@H](n2nc(-c3ccc(OC(C)C)cc3)c(C(N)=O)c2N)C1 [Compound I-18, (R)-1-(1-Acryloylpiperidin-3-yl)-5-amino-3-(4-isopropoxyphenyl)-1H-pyrazole-4-carboxamide] |  | 2.4
N#C/C=C\CN1CCCC(n2nc(-c3ccc(Oc4ccccc4)cc3)c(C(N)=O)c2N)C1 (stereo not shown) [Compound I-12, (Z)-5-Amino-1-(1-(3-cyanoallyl)piperidin-3-yl)-3-(4-phenoxyphenyl)-1H-pyrazole-4-carboxamide] |  | 18
C=CC(=O)N1CCC[C@@H](n2nc(-c3ccc(OCC(C)C)cc3)c(C(N)=O)c2N)C1 [Compound I-20, (R)-1-(1-Acryloylpiperidin-3-yl)-5-amino-3-(4-isobutoxyphenyl)-1H-pyrazole-4-carboxamide] |  | 0.49
C=CS(=O)(=O)N1CCCC(n2nc(-c3ccc(Oc4ccccc4)cc3)c(C(N)=O)c2N)C1 (stereo not shown) [Compound I-8, 5-Amino-3-(4-phenoxyphenyl)-1-(1-(vinylsulfonyl)piperidin-3-yl)-1H-pyrazole-4-carboxamide] |  | 0.23
C=CC(=O)Nc1ccc2c(N)c(C(N)=O)n(-c3ccc(Oc4ccccc4)cc3)c2c1 [II-8, 6-Acrylamido-3-amino-1-(4-phenoxyphenyl)-1H-indole-2-carboxamide] |  | 210
CN(C)C/C=C/C(=O)N1CCCC(n2nc(-c3ccc(Oc4ccccc4)cc3)c(C(N)=O)c2N)C1 (stereo not shown) [Compound I-4, (E)-5-Amino-1-(1-(4-(dimethylamino)but-2-enoyl)piperidin-3-yl)-3-(4-phenoxyphenyl)-1H-pyrazole-4-carboxamide] | 3.6 | 0.56
CN(C)C(=O)/C=C/CN1CCCC(n2nc(-c3ccc(Oc4ccccc4)cc3)c(C(N)=O)c2N)C1 (stereo not shown) [Compound I-10, (E)-5-Amino-1-(1-(4-(dimethylamino)-4-oxobut-2-enyl)piperidin-3-yl)-3-(4-phenoxyphenyl)-1H-pyrazole-4-carboxamide] |  | 18
C=CC(=O)N1Cc2c(N)c(C(N)=O)n(-c3ccc(Oc4ccccc4)cc3)c2C1 [II-5, 5-Acryloyl-3-amino-1-(4-phenoxyphenyl)-1,4,5,6-tetrahydropyrrolo[3,4-b]pyrrole-2-carboxamide] |  | 9
C=CC(=O)N1CCC[C@@H](n2nc(-c3ccc(Cl)c(OC)c3)c(C(N)=O)c2N)C1 [Compound I-21, (R)-1-(1-Acryloylpiperidin-3-yl)-5-amino-3-(4-chloro-3-methoxyphenyl)-1H-pyrazole-4-carboxamide] |  | 0.18
C=CC(=O)NCCN1CCc2c(c(N)c(C(N)=O)n2-c2ccc(Oc3ccccc3)cc2)C1 [II-3, 5-(2-Acrylamidoethyl)-3-amino-1-(4-phenoxyphenyl)-4,5,6,7-tetrahydro-1H-pyrrolo[3,2-c]pyridine-2-carboxamide] |  | 480
NC(=O)c1c(N)c(C2CCNCC2)cn1-c1ccc(Oc2ccccc2)cc1 [II-9, 3-Amino-1-(4-phenoxyphenyl)-4-(piperidin-4-yl)-1H-pyrrole-2-carboxamide] |  | 7600
C=CC(=O)N1CCC[C@@H](n2nc(-c3ccc(OCC4CC4)cc3)c(C(N)=O)c2N)C1 [Compound I-17, (R)-1-(1-Acryloylpiperidin-3-yl)-5-amino-3-(4-(cyclopropylmethoxy)phenyl)-1H-pyrazole-4-carboxamide] |  | 0.92
C=CC(=O)N1CCCC(c2cn(-c3ccc(Oc4ccccc4)cc3)c(C(N)=O)c2N)C1 (stereo not shown) [II-10, 4-(1-Acryloylpiperidin-3-yl)-3-amino-1-(4-phenoxyphenyl)-1H-pyrrole-2-carboxamide] |  | 2.7
N#CCC(=O)N1CCCC(n2nc(-c3ccc(Oc4ccccc4)cc3)c(C(N)=O)c2N)C1 (stereo not shown) [Compound I-9, 5-Amino-1-(1-(2-cyanoacetyl)piperidin-3-yl)-3-(4-phenoxyphenyl)-1H-pyrazole-4-carboxamide] |  | 22
C=CC(=O)N1CCc2c(c(N)c(C(N)=O)n2-c2ccc(Oc3ccccc3)cc2)C1 [II-1, 5-Acryloyl-3-amino-1-(4-phenoxyphenyl)-4,5,6,7-tetrahydro-1H-pyrrolo[3,2-c]pyridine-2-carboxamide] | 16.6 | 3.3
CC=CC(=O)N1CCCC(n2nc(-c3ccc(Oc4ccccc4)cc3)c(C(N)=O)c2N)C1 (stereo not shown) [Compound I-5, 5-Amino-1-(1-(but-2-enoyl)piperidin-3-yl)-3-(4-phenoxyphenyl)-1H-pyrazole-4-carboxamide] | 42.6 | 2.5
C=CC(=O)N1CC2(CC(n3nc(-c4ccc(Oc5ccccc5)cc4)c(C(N)=O)c3N)C2)C1 [Compound I-19, 1-(2-Acryloyl-2-azaspiro[3.3]heptan-6-yl)-5-amino-3-(4-phenoxyphenyl)-1H-pyrazole-4-carboxamide] |  | 0.15
C=CC(=O)N1CCc2c(c(N)c(C(N)=O)n2-c2ccc(OCc3ccccc3)cc2)C1 [II-4, 5-Acryloyl-3-amino-1-(4-(benzyloxy)phenyl)-4,5,6,7-tetrahydro-1H-pyrrolo[3,2-c]pyridine-2-carboxamide] |  | 25
